Patent publication US8241862B2, “Perinucleolar compartment as a cancer marker” (Northwestern University, priority 2002, dated 2012)
*1 amine or outer side, *2 acyl side, *3 side chain or, on linkers, in order; H or OH if unused. Where a SMILES comes first, the peptide text is derived from it. Bridges are numbered along the chain shown (N, C = ends). Roman numbers before positions name the chains, in order. [ ]: non-standard residue; d: D form. Actinocin(9to1) = Cc1c2oc3c(C)ccc(C(=O)[*:1])c3nc-2c(C(=O)[*:2])c(N)c1=O; NMeV = CN[C@H](C(=O)O)C(C)C; Sar = CNCC(=O)O

Test system: HeLa cells
Assay: Effect of chemotherapeutic drugs on PNC prevalence in cultured HeLa cells
Type: cell-based, human
Procedure: Cultured HeLa cells, whose PNC prevalence is above 95%, were treated with various chemotherapeutic drugs.

SMILES: Cc1c2oc3c(C)ccc(C(=O)N[C@@H]4C(=O)N[C@H](C(C)C)C(=O)N5CCC[C@H]5C(=O)N(C)CC(=O)N(C)[C@@H](C(C)C)C(=O)O[C@@H]4C)c3nc-2c(C(=O)N[C@@H]2C(=O)N[C@H](C(C)C)C(=O)N3CCC[C@H]3C(=O)N(C)CC(=O)N(C)[C@@H](C(C)C)C(=O)O[C@@H]2C)c(N)c1=O [Actinomycin D] (I: T[dV]P[Sar][NMeV] / II: T[dV]P[Sar][NMeV]; ester I:1-I:C, II:1-II:C; linker I:N-II:N via Actinocin(9to1))
- Effect on PNC (cell negative for PNC) (0.04 μg/ml, 2 hours): 100% cell negative for PNC

SMILES: CC(=O)O[C@H]1C(=O)[C@@]2(C)[C@H]([C@H](OC(=O)c3ccccc3)[C@]3(O)C[C@H](OC(=O)[C@H](O)[C@@H](NC(=O)c4ccccc4)c4ccccc4)C(C)=C1C3(C)C)[C@]1(OC(C)=O)CO[C@@H]1C[C@@H]2O [Paclitaxel]
- Effect on PNC (5 to 40 μM, 16 hours): No effect on PNC structure

SMILES: CC[C@]1(O)C[C@H]2CN(CCc3c([nH]c4ccccc34)[C@@](C(=O)OC)(c3cc4c(cc3OC)N(C=O)[C@H]3[C@@](O)(C(=O)OC)[C@H](OC(C)=O)[C@]5(CC)C=CCN6CC[C@]43[C@@H]65)C2)C1 [Vincristine]
- Effect on PNC (5 to 40 μM, 16 hours): No effect on PNC structure

SMILES: COc1cccc2c1C(=O)c1c(O)c3c(c(O)c1C2=O)C[C@@](O)(C(=O)CO)C[C@@H]3O[C@H]1C[C@H](N)[C@H](O)[C@H](C)O1 [Adriamycin]
- Effect on PNC (5 to 40 μM, 16 hours): No effect on PNC structure

SMILES: Nc1ccn([C@@H]2O[C@H](CO)[C@@H](O)[C@@H]2O)c(=O)n1 [Cytosine Arabinoside]
- Effect on PNC (10 to 40 μg/ml, 16 hours): No effect on PNC structure

SMILES: O=c1[nH]cc(F)c(=O)[nH]1 [5′-fluorouracil]
- Effect on PNC (1 to 5 μg/ml, 16 hours): No effect on PNC structure

SMILES: CC[C@@]1(O)C(=O)OCc2c1cc1n(c2=O)Cc2cc3ccccc3nc2-1 [Campothecin]
- Effect on PNC (cell negative for PNC) (1.25 to 2.5 μg/ml, 1 hour): 100% cell negative for PNC

SMILES: CN(Cc1cnc2nc(N)nc(N)c2n1)c1ccc(C(=O)N[C@@H](CCC(=O)O)C(=O)O)cc1 [Methotrexate]
- Effect on PNC (cells negative for PNC) (0.5 μg/ml, 16 hours): 30% cells negative for PNC
- Effect on PNC (cells negative for PNC) (1.0 μg/ml, 16 hours): 60% cells negative for PNC
- Effect on PNC (cells negative for PNC) (2.5 μg/ml, 16 hours): 80% cells negative for PNC
- Response of PNC prevalence to dose (0.5 to 2.5 μg/ml, 16 hours): dose-dependent

SMILES: COc1cc(NS(C)(=O)=O)ccc1Nc1c2ccccc2nc2ccccc12 [AMSA]
- Effect on PNC (5 to 40 μM, 16 hours): No effect on PNC structure

SMILES: NC(=O)NO [Hydroxyurea]
- Effect on PNC (0.5 to 1.5 μM, 16 hours): No effect on PNC structure

SMILES: N.N.[Cl][Pt][Cl] [Cisplatin]
- Effect on PNC (cell negative for PNC) (0.5 μg/ml, 5 hours): 95% cell negative for PNC
